From PMC9146377, “Design and Synthesis of Novel Bis-Imidazolyl Phenyl Butadiyne Derivatives as HCV NS5A Inhibitors” (Pharmaceuticals, 2022)
Like-named read-outs stand apart in the source and are kept apart here.

What was measured:
[1] = Cytotoxicity assay (intracellular ATP levels) in Huh5-2 replicon cells; type: cell-based; details: human, Huh5-2 cells, read-out: HCV Replicon 1b CC50
Description: (§1) All synthesized compounds were tested against HCV genotype 1b Con-1 subgenomic replicon in the Huh-5-2 stable cell line. Specifically, their activity against viral replication was estimated by measuring firefly luciferase, which is co-expressed by the bicistronic replicon, and their half-maximal effective concentrations (EC50) were determined. In parallel, the half-maximal cytotoxic concentrations (CC50) of the compounds were estimated, and their selective indexes (SI50: CC50/ EC50) were calculated. All novel synthesized compounds were active against HCV 1b with EC50 < 1 µM except for compound 4b (Table 3).
Intracellular ATP levels were measured to determine the cytotoxicity of the compounds in the treated cells. In 96-well plates, 10^4 cells per well were seeded, incubated with serial dilutions of the compounds or DMSO as a control for 72 h at 37 °C (5% CO2) and lysed for ATP measurement. ATP levels were measured using the ViaLight HS BioAssay kit (Lonza, Basel, Switzerland) in a GloMax 20/20 single-tube luminometer (Promega) for 1 s, according to the manufacturer’s protocol. Values were normalized to total protein amounts and used to determine the compound concentration causing 50% cell death (CC50). Nonlinear regression analysis was performed using Prism 5.0 software (GraphPad Software Inc., San Diego, CA, USA).

[2] = tested on: HCV genotype 1b Con-1 subgenomic replicon; test: Anti-HCV luciferase assay, genotype 1b (Con1) subgenomic replicon in Huh5-2 cells; type: cell-based, Hepatitis C virus; details: for EC50: mean of three experiments; for HCV Replicon 1b SI50: CC50/EC50, Huh5-2 cells
Description: as §1
Huh5-2 [65] and Huh7-JFH1 [66] stable cell lines harbor the subgenomic HCV reporter replicon I389luc-ubi-neo/NS3-3′/Con1/5.1 (genotype 1b; strain Con1) and I389luc-ubi-neo/NS3-3′_dg_JFH1 (genotype 2a, JFH1 strain), respectively (kindly provided by R. Bartenschlager, Heidelberg University, Heidelberg, Germany). Huh7.5-3a and Huh7.5-4a stable cell lines harbor the subgenomic HCV reporter replicon S52-SG (Feo) (AII) (genotype 3a; S52 strain) and ED43-SG (Feo) (VYG) (genotype 4a; ED43 strain), respectively (viral constructs kindly provided by C.M. Rice, Rockefeller University, New York, NY, USA). These replicons carry as a first cistron firefly luciferase (F-Luc) and neomycin phosphotransferase genes under the translational control of the HCV internal ribosome entry site (IRES), followed by HCV NS3 to NS5B proteins under the control of the EMCV IRES.
The anti-HCV assay in replicon cells was performed by seeding 1 × 10^4 cells per well in a 96-well plate. After 24 h of incubation at 37 °C (5% CO2) and medium removal, serial dilutions of the test compounds in complete DMEM were added. Cells were lysed after 72 h, and F-Luc activity was measured. The anti-HCV assay for the full-length viral construct H77S.3/GLuc2A was performed after electroporation of Huh7-Lunet cells with viral RNA. Cells were seeded in 96-well plates, the medium was removed 24 h after electroporation, and serial dilutions of the compounds in complete DMEM were added. At 72 h post-treatment, cell supernatants were collected, and G-Luc activity was measured. In addition, the cells were lysed for total protein quantification.
Relative luminescence units (RLU) were expressed as a percentage of the respective units derived from DMSO-treated cells (control). The half-maximal effective concentration (EC50), defined as the concentration of compound that reduces luciferase signal by 50%, was calculated by dose-response curve analysis using Prism 5.0 software (GraphPad Software Inc., San Diego, CA, USA).
The F-Luc activity was measured using the Luciferase Assay System (Promega, Madison, WI, USA), as recommended by the manufacturer. The G-Luc activity was measured using 12 μM coelenterazine (Promega) in assay buffer (50 mM potassium phosphate, pH 7.4, 500 mM NaCl, 1 mM EDTA). Measurements were carried out using a GloMax 20/20 single tube luminometer (Promega) for 10 s. The F-Luc activity was normalized to the total protein amount determined using the Bradford assay reagent (Pierce, Waltham, MA, USA).

[3] = Hepatitis C virus, Huh-5-2, 72 h, read-out: HCV Replicon 1b EC50, Huh5-2 cells, Con1 strain, F-Luc, 72 h
[4] = Hepatitis C virus, Huh-5-2, 72 h, Huh5-2 cells, Con1 strain, F-Luc, 72 h, read-out: HCV Replicon 1b EC50

| Compound | CC50 at 72 h [1] [nM] | EC50 [2, 3] [nM] | HCV Replicon 1b SI50 [2] | EC50 [2, 4] [nM] | melting point [°C] | EC50 ([2]; Huh5-2 cells, Con1 strain, F-Luc, 72 h, read-out: HCV Replicon 1b EC50) [nM] |
| --- | --- | --- | --- | --- | --- | --- |
| COC(=O)N[C@H](C(=O)N1CCC[C@H]1c1ncc(-c2cccc(C#CC#Cc3cccc(-c4cnc([C@@H]5CCCN5C(=O)[C@@H](NC(=O)OC)C(C)C)[nH]4)c3)c2)[nH]1)C(C)C [Compound 1a, Dimethyl ((2S,2′S)-((2S,2′S)-((buta-1,3-diyne-1,4-diylbis(3,1-phenylene))bis(1H-imidazole-5,2-diyl))bis(pyrrolidine-2,1-diyl))bis(3-methyl-1-oxobutane-1,2diyl))dicarbamate] | > 100000 | 166 | – | – | – | – |
| COC(=O)N[C@H](C(=O)N1CCC[C@H]1c1ncc(-c2ccc(C#CC#Cc3ccc(-c4cnc([C@@H]5CCCN5C(=O)[C@@H](NC(=O)OC)C(C)C)[nH]4)cc3)cc2)[nH]1)C(C)C [Compound 1b, Dimethyl ((2S,2′S)-((2S,2′S)-((buta-1,3-diyne-1,4-diylbis(4,1-phenylene))bis(1H-imidazole-5,2-diyl))bis(pyrrolidine-2,1-diyl))bis(3-methyl-1-oxobutane-1,2-diyl))dicarbamate] | > 100000 | – | >1113.58 | 89.8 | – | – |
| COC(=O)N[C@@H](C(=O)N1CCC[C@H]1c1ncc(-c2cccc(C#CC#Cc3cccc(-c4cnc([C@@H]5CCCN5C(=O)[C@H](NC(=O)OC)C(C)C)[nH]4)c3)c2)[nH]1)C(C)C [Compound 2a, Dimethyl ((2R,2′R)-((2S,2′S)-((buta-1,3-diyne-1,4-diylbis(3,1-phenylene))bis(1H-imidazole-5,2-diyl))bis(pyrrolidine-2,1-diyl))bis(3-methyl-1-oxobutane-1,2-diyl))dicarbamate] | > 100000 | – | >250.06 | 400 | 103 to 105 | – |
| COC(=O)N[C@@H](C(=O)N1CCC[C@H]1c1ncc(-c2ccc(C#CC#Cc3ccc(-c4cnc([C@@H]5CCCN5C(=O)[C@H](NC(=O)OC)C(C)C)[nH]4)cc3)cc2)[nH]1)C(C)C [Compound 2b, Dimethyl ((2R,2′R)-((2S,2′S)-((buta-1,3-diyne-1,4-diylbis(4,1-phenylene))bis(1H-imidazole-5,2-diyl))bis(pyrrolidine-2,1-diyl))bis(3-methyl-1-oxobutane-1,2-diyl))dicarbamate] | > 100000 | – | >248.20 | 403 | – | – |
| CCOC(=O)N[C@H](C(=O)N1CCC[C@H]1c1ncc(-c2cccc(C#CC#Cc3cccc(-c4cnc([C@@H]5CCCN5C(=O)[C@@H](NC(=O)OCC)C(C)C)[nH]4)c3)c2)[nH]1)C(C)C [Compound 3a, Diethyl ((2S,2′S)-((2S,2′S)-((buta-1,3-diyne-1,4-diylbis(3,1-phenylene))bis(1H-imidazole-5,2-diyl))bis(pyrrolidine-2,1-diyl))bis(3-methyl-1-oxobutane-1,2-diyl))dicarbamate] | > 100000 | – | >629.72 | 159 | 124 to 126.7 | – |
| CCOC(=O)N[C@H](C(=O)N1CCC[C@H]1c1ncc(-c2ccc(C#CC#Cc3ccc(-c4cnc([C@@H]5CCCN5C(=O)[C@@H](NC(=O)OCC)C(C)C)[nH]4)cc3)cc2)[nH]1)C(C)C [Compound 3b, Diethyl ((2S,2′S)-((2S,2′S)-((buta-1,3-diyne-1,4-diylbis(4,1-phenylene))bis(1H-imidazole-5,2-diyl))bis(pyrrolidine-2,1-diyl))bis(3-methyl-1-oxobutane-1,2-diyl))dicarbamate] | > 100000 | – | >297.44 | 336 | 139 to 141 | – |
| CCCCOC(=O)N[C@H](C(=O)N1CCC[C@H]1c1ncc(-c2cccc(C#CC#Cc3cccc(-c4cnc([C@@H]5CCCN5C(=O)[C@@H](NC(=O)OCCCC)C(C)C)[nH]4)c3)c2)[nH]1)C(C)C [Compound 4a, Dibutyl ((2S,2′S)-((2S,2′S)-((buta-1,3-diyne-1,4-diylbis(3,1-phenylene))bis(1H-imidazole-5,2-diyl))bis(pyrrolidine-2,1-diyl))bis(3-methyl-1-oxobutane-1,2-diyl))dicarbamate] | > 100000 | – | >110.89 | 902 | – | – |
| CCCCOC(=O)N[C@H](C(=O)N1CCC[C@H]1c1ncc(-c2ccc(C#CC#Cc3ccc(-c4cnc([C@@H]5CCCN5C(=O)[C@@H](NC(=O)OCCCC)C(C)C)[nH]4)cc3)cc2)[nH]1)C(C)C [Compound 4b, Dibutyl ((2S,2′S)-((2S,2′S)-((buta-1,3-diyne-1,4-diylbis(4,1-phenylene))bis(1H-imidazole-5,2-diyl))bis(pyrrolidine-2,1-diyl))bis(3-methyl-1-oxobutane-1,2-diyl))dicarbamate] | > 100000 | – | – | > 1000 | 136 to 138 | – |
| COC(=O)N[C@@H](CC(C)C)C(=O)N1CCC[C@H]1c1ncc(-c2cccc(C#CC#Cc3cccc(-c4cnc([C@@H]5CCCN5C(=O)[C@H](CC(C)C)NC(=O)OC)[nH]4)c3)c2)[nH]1 [Compound 5a, Dimethyl ((2S,2′S)-((2S,2′S)-((buta-1,3-diyne-1,4-diylbis(3,1-phenylene))bis(1H-imidazole-5,2-diyl))bis(pyrrolidine-2,1-diyl))bis(4-methyl-1-oxopentane-1,2-diyl))dicarbamate] | > 100000 | – | >879.51 | 114 | 103.1 to 105.3 | – |
| CCOC(=O)N[C@@H](CC(C)C)C(=O)N1CCC[C@H]1c1ncc(-c2cccc(C#CC#Cc3cccc(-c4cnc([C@@H]5CCCN5C(=O)[C@H](CC(C)C)NC(=O)OCC)[nH]4)c3)c2)[nH]1 [Compound 7a, Diethyl ((2S,2′S)-((2S,2′S)-((buta-1,3-diyne-1,4-diylbis(3,1-phenylene))bis(1H-imidazole-5,2-diyl))bis(pyrrolidine-2,1-diyl))bis(4-methyl-1-oxopentane-1,2-diyl))dicarbamate] | > 100000 | 97.8 | >1021.55 | – | – | 97.9 |
| COC(=O)N[C@H](C(=O)N1CCC[C@H]1c1ncc(-c2ccc(C#CC#Cc3ccc(-c4cnc([C@@H]5CCCN5C(=O)[C@@H](NC(=O)OC)c5ccccc5)[nH]4)cc3)cc2)[nH]1)c1ccccc1 [Compound 9b, Dimethyl ((1S,1′S)-((2S,2′S)-((buta-1,3-diyne-1,4-diylbis(4,1-phenylene))bis(1H-imidazole-5,2-diyl))bis(pyrrolidine-2,1-diyl))bis(2-oxo-1-phenylethane-2,1-diyl))dicarbamate] | > 100000 | – | >542.59 | 184 | – | – |
| COC(=O)N[C@H](C(=O)N1CCC[C@H]1c1nc(-c2ccc(-c3ccc(-c4c[nH]c([C@@H]5CCCN5C(=O)[C@@H](NC(=O)OC)C(C)C)n4)cc3)cc2)c[nH]1)C(C)C [Daclatasvir, reference compound] | 17700 | – | 655,556 | 0.027 | – | – |
